Experimental findings from patent US20210386757A1, “Methods of Treating Menopausal Symptoms Using Low Dose Progesterone” (priority 2018, published 2021) are described below.

Data set [1] concerns symptoms associated with menopause transition. Nature of the data set: Observational study of low dose oral micronized progesterone in menopause transition, Menopause Rating Scale (MRS). It counts as in vivo, women. The text has this: Women between the ages of 40 to 55 years of age who were experiencing symptoms consistent with menopause transition were offered a trial of a low dose progesterone to alleviate their symptoms. The primary complaint for inclusion in the study was alterations in mood defined as depressive mood, irritability, or anxiety on the Menopause Rating Scale (MRS). A score of 2-4 on these mood changes was required to be included in the study. One additional symptom (sleep problems, hot flushes, physical and mental exhaustion) on the MRS was required, with a minimum score of 1, to be included. Patients with a history of breast cancer, actively trying to conceive, or in menopause were excluded from the study. Menopause was defined as no menses for greater than one year or surgical removal of the ovaries. Patients were consented for a trial of oral micronized progesterone at 25 mg twice a day. Response to treatment was evaluated in the office after 3 months of treatment. Data was collected over a one-year time period, September 2018-September 2019. The menopause transition time, referred to as perimenopause, includes both the early and late perimenopausal group. Patient selection was classified according to STRAW (Stages of Reproductive Aging Workshop) classification. Late perimenopause was defined as menstruation in the previous/last 2-12 months, but not in the previous/last 2 months. Early perimenopause was defined as increasing irregularity of menses without skipping periods (7 days difference) from the beginning of a given cycle to the next. The Menopause Rating Scale was utilized to quantify qualitative symptoms associated with the menopause transition. Given treatment differences in the symptoms that impact person transitioning through menopause, attention was focused on 6 components of the MRS; hot flushes, sleep problems, depressive mood, irritability, anxiety, and physical/mental exhaustion. The scoring scheme increases point by point with increasing severity of subjectively perceived symptoms in each of those 6 items (severity 0 [no complaints] . . . 4 scoring points [very severe symptoms]). The respondent rated their personal symptoms on a 0 to 4 scale for each item. The MRS was chosen as a result of being a reliable measure of quality of life in aging women of various regions over time.

For data set [2], the system named is symptoms of the menopause transition state. In words: Trial of progesterone for treating symptoms of the menopause transition state (Example 1). Type of data set: in vivo, women. The following applies: greater than 100 patients, low dose e.g. 25 mg twice a day. The method, then: It is apparent based on initial observations that supplementing with a low dose progesterone alleviates symptoms in women transitioning into menopause. The question then becomes, if a person is experiencing symptoms of estrogen dominance does failing to treat estrogen dominance result in a greater risk of breast cancer, uterine cancer, and cardiovascular disease. Supplementing with progesterone, e.g., at 25 mg twice a day can improve many symptoms associated with menopause transition. […] Micronized progesterone (25 mg) Dosing regimens of interest: One tablet bid (twice a day); Two tablets qhs (each night at bedtime); One tablet qam (every morning), two tablets qhs (each night at bedtime).

The structures appear in SMILES notation.

Consider `CC(=O)[C@H]1CC[C@H]2[C@@H]3CCC4=CC(=O)CC[C@]4(C)[C@H]3CC[C@]12C` [micronized progesterone, progesterone], for which the “response of patients who altered the dosing regimen” value in data set [1] (once a day or two tablets (50 mg) at night, 14 patients excluded from the study) was “noted benefits and chose to continue the medication”. For the same compound, the “patients with at least a one-point improvement in MRS symptom score, physical and mental exhaustion” value in data set [1] (oral 25 mg twice a day, 3 months, 12 of 19 patients who noted physical and mental exhaustion) is recorded as 63%. In data set [1] (oral 25 mg twice a day, 3 months, 27 of 32 patients who noted sleep problems), the “patients with at least a one-point improvement in MRS symptom score, sleep problems” value turned out to be 84%. Moreover, the “patients with at least a one-point improvement in MRS symptom score, hot flushes” value in data set [1] (oral 25 mg twice a day, 3 months, 44 of 48 patients who noted hot flushes) came out at 92%. In data set [1] (oral 25 mg twice a day, 3 months, of 55 patients evaluated), the “patients who did not report side effects to the medication” value is listed as 54 patients. Also, the “patients reporting MRS symptom score of 0” value in data set [1] (oral 25 mg twice a day, at 3 months, 44 of 55 patients) is 80%. Moreover, the “discontinuation because of a diagnosis of breast cancer, thromboembolic event, or abnormal uterine bleeding” value in data set [1] (oral 25 mg twice a day, during the study period) is recorded as “No patient discontinued the medication”. Also, the “patients with at least a two-point improvement in MRS symptom score related to mood changes” value in data set [1] (oral 25 mg twice a day, evaluated at 3 months, 52 of 55 patients) is recorded as 94.5%. Further, the “discontinuation because of an adverse effect” value in data set [1] (oral 25 mg twice a day, prior to the 3 month follow up) is on record as “One patient discontinued the medication prior to the 3 month follow up secondary to worsening headaches”. Besides, in data set [2], the “subsequent diagnosis of breast cancer, uterine cancer, or a cardiovascular event” value was “not one patient was subsequently diagnosed with breast cancer, uterine cancer, or a cardiovascular event”.
